# Test system: maternal HIV+ sera (antibodies)
# Test: RIA / ELISA binding of maternal HIV+ sera to gp120 and gp41 peptides (Example 3)
# Set-up: species or system human
# Experimental: Radioimmunoassay (RIA) and enzyme-linked immunosorbent assay (ELISA) were performed by standard methodologies [E. Engvall, Meth. Immunol., 70:419-439 (1980); S. K. Pierce et al, J. Exp. Med., 144:1254-1262 (1976)]. Peptides were dissolved in 0.05M carbonate-bicarbonate buffer (pH 9.6) at a concentration of 10 μg/ml. Fifty μl (500 ng) of the peptides were immobilized in 96 well polyvinylchloride plates (Dynatech Laboratories, Inc.) overnight at 4° C. Plates were washed and non-specific sites were blocked with PBS containing 1% BSA overnight at 4° C.
# Dilutions of HIV positive maternal sera were made in blocking buffer at dilutions of 1:50 and 1:500 and incubated in peptide coated plates overnight at 4° C. Plates were washed with PBS and incubated with 75,000 cpm of ^125 I-labelled goat anti-human IgG. The antibody was iodinated by a chloramine T method [W. V. Williams et al, Proc. Natl. Acad. Sci. USA, 85:6488-6492 (1988)]. Plates were washed, dried and counted in a gamma counter to measure specific binding. Normal human serum (i.e., HIV seronegative) was used as a control.
# Alternatively, ELISA assays were performed in polystyrene plates (Dynatech Laboratories, Inc) in which 0.05% Tween 20 (Sigma Chemical Co.) was included in the washing, blocking and dilution buffers. The secondary antibody used was goat […] Ig conjugated to horseradish peroxidase (HRP) (Sigma Chemical Co). The substrate used for color development was 3,3',5,5' tetramethyl-benzidine dihydrochloride (TMB) (Sigma Chemical Co). Absorbance of samples was measured in a Dynatech MR5000 (Dynatech Laboratories, Inc.) plate reader and expressed as an optical density at wavelength of 450 nm (OD450).
# The following key is used for the designation of specific binding of the maternal sera samples to the peptides: The minus sign, -, is equivalent to the specific OD450 or cpm of sera sample binding to peptide divided by the specific OD450 or cpm of NHS sample binding to peptide, which value is less than 2. The plus sign, +, is equivalent to the specific OD450 or cpm of sera sample binding to peptide divided by the specific OD450 or cpm of NHS sample binding to peptide, which value is between 2 to 3.
# Specific binding is defined as the difference between the OD450 or cpm of sera to wells with peptide and the OD450 or cpm of sera to wells without peptide.
# Comparisons of number of peptides which bound maternal serum samples were made between the transmission group and the nontransmission group. The data was analyzed using the unpaired student's test. For the determination of differences in the binding of specific peptides between transmission and non-transmission groups, the Spearman's rank-order correlation test was performed.
# [1] = Serum No. 1, Non-Transmission Group
# [2] = Serum No. 2, Non-Transmission Group
# [3] = Serum No. 3, Non-Transmission Group
# [4] = Serum No. 4, Transmission Group
# [5] = Serum No. 5, Transmission Group
# [6] = Serum No. 6, Non-Transmission Group
# [7] = Serum No. 7, Non-Transmission Group
# [8] = Serum No. 8, Non-Transmission Group
# [9] = Serum No. 9, Non-Transmission Group
# [10] = Serum No. 10, Transmission Group
# [11] = Serum No. 11, Non-Transmission Group
# [12] = Serum No. 12, Non-Transmission Group
# [13] = Serum No. 13, Transmission Group
# [14] = Serum No. 14, Transmission Group
# [15] = Serum No. 15, Transmission Group
# [16] = Serum No. 16, Non-Transmission Group
# [17] = Serum No. 17, Non-Transmission Group
# [18] = Serum No. 18, Non-Transmission Group
# [19] = Serum No. 19, Transmission Group
# [20] = Serum No. 20, Non-Transmission Group
Sequence,Binding of maternal HIV+ serum to peptide (sera/NHS ratio) [1],Binding of maternal HIV+ serum to peptide (sera/NHS ratio) [2],Binding of maternal HIV+ serum to peptide (sera/NHS ratio) [3],Binding of maternal HIV+ serum to peptide (sera/NHS ratio) [4],Binding of maternal HIV+ serum to peptide (sera/NHS ratio) [5],Binding of maternal HIV+ serum to peptide (sera/NHS ratio) [6],Binding of maternal HIV+ serum to peptide (sera/NHS ratio) [7],Binding of maternal HIV+ serum to peptide (sera/NHS ratio) [8],Binding of maternal HIV+ serum to peptide (sera/NHS ratio) [9],Binding of maternal HIV+ serum to peptide (sera/NHS ratio) [10],Binding of maternal HIV+ serum to peptide (sera/NHS ratio) [11],Binding of maternal HIV+ serum to peptide (sera/NHS ratio) [12],Binding of maternal HIV+ serum to peptide (sera/NHS ratio) [13],Binding of maternal HIV+ serum to peptide (sera/NHS ratio) [14],Binding of maternal HIV+ serum to peptide (sera/NHS ratio) [15],Binding of maternal HIV+ serum to peptide (sera/NHS ratio) [16],Binding of maternal HIV+ serum to peptide (sera/NHS ratio) [17],Binding of maternal HIV+ serum to peptide (sera/NHS ratio) [18],Binding of maternal HIV+ serum to peptide (sera/NHS ratio) [19],Binding of maternal HIV+ serum to peptide (sera/NHS ratio) [20],other results
ATEKLWVTVYYGVPVWLEATTTL [Peptide 60],"- (specific OD450 or cpm of sera sample binding to peptide divided by the specific OD450 or cpm of NHS sample binding to peptide, which value is less than 2)","- (specific OD450 or cpm of sera sample binding to peptide divided by the specific OD450 or cpm of NHS sample binding to peptide, which value is less than 2)","- (specific OD450 or cpm of sera sample binding to peptide divided by the specific OD450 or cpm of NHS sample binding to peptide, which value is less than 2)","- (specific OD450 or cpm of sera sample binding to peptide divided by the specific OD450 or cpm of NHS sample binding to peptide, which value is less than 2)","- (specific OD450 or cpm of sera sample binding to peptide divided by the specific OD450 or cpm of NHS sample binding to peptide, which value is less than 2)","- (specific OD450 or cpm of sera sample binding to peptide divided by the specific OD450 or cpm of NHS sample binding to peptide, which value is less than 2)","- (specific OD450 or cpm of sera sample binding to peptide divided by the specific OD450 or cpm of NHS sample binding to peptide, which value is less than 2)","- (specific OD450 or cpm of sera sample binding to peptide divided by the specific OD450 or cpm of NHS sample binding to peptide, which value is less than 2)","- (specific OD450 or cpm of sera sample binding to peptide divided by the specific OD450 or cpm of NHS sample binding to peptide, which value is less than 2)","- (specific OD450 or cpm of sera sample binding to peptide divided by the specific OD450 or cpm of NHS sample binding to peptide, which value is less than 2)","- (specific OD450 or cpm of sera sample binding to peptide divided by the specific OD450 or cpm of NHS sample binding to peptide, which value is less than 2)","- (specific OD450 or cpm of sera sample binding to peptide divided by the specific OD450 or cpm of NHS sample binding to peptide, which value is less than 2)","- (specific OD450 or cpm of sera sample binding to peptide divided by the specific OD450 or cpm of NHS sample binding to peptide, which value is less than 2)","- (specific OD450 or cpm of sera sample binding to peptide divided by the specific OD450 or cpm of NHS sample binding to peptide, which value is less than 2)","- (specific OD450 or cpm of sera sample binding to peptide divided by the specific OD450 or cpm of NHS sample binding to peptide, which value is less than 2)","- (specific OD450 or cpm of sera sample binding to peptide divided by the specific OD450 or cpm of NHS sample binding to peptide, which value is less than 2)","- (specific OD450 or cpm of sera sample binding to peptide divided by the specific OD450 or cpm of NHS sample binding to peptide, which value is less than 2)","- (specific OD450 or cpm of sera sample binding to peptide divided by the specific OD450 or cpm of NHS sample binding to peptide, which value is less than 2)","- (specific OD450 or cpm of sera sample binding to peptide divided by the specific OD450 or cpm of NHS sample binding to peptide, which value is less than 2)","- (specific OD450 or cpm of sera sample binding to peptide divided by the specific OD450 or cpm of NHS sample binding to peptide, which value is less than 2)",Binding of maternal sera to peptide (in words) (Example 3): No binding
CTRPNNNTRKSIRIQ [Peptide 106],"- (specific OD450 or cpm of sera sample binding to peptide divided by the specific OD450 or cpm of NHS sample binding to peptide, which value is less than 2)","- (specific OD450 or cpm of sera sample binding to peptide divided by the specific OD450 or cpm of NHS sample binding to peptide, which value is less than 2)","- (specific OD450 or cpm of sera sample binding to peptide divided by the specific OD450 or cpm of NHS sample binding to peptide, which value is less than 2)","- (specific OD450 or cpm of sera sample binding to peptide divided by the specific OD450 or cpm of NHS sample binding to peptide, which value is less than 2)","- (specific OD450 or cpm of sera sample binding to peptide divided by the specific OD450 or cpm of NHS sample binding to peptide, which value is less than 2)","- (specific OD450 or cpm of sera sample binding to peptide divided by the specific OD450 or cpm of NHS sample binding to peptide, which value is less than 2)","- (specific OD450 or cpm of sera sample binding to peptide divided by the specific OD450 or cpm of NHS sample binding to peptide, which value is less than 2)","- (specific OD450 or cpm of sera sample binding to peptide divided by the specific OD450 or cpm of NHS sample binding to peptide, which value is less than 2)","- (specific OD450 or cpm of sera sample binding to peptide divided by the specific OD450 or cpm of NHS sample binding to peptide, which value is less than 2)","- (specific OD450 or cpm of sera sample binding to peptide divided by the specific OD450 or cpm of NHS sample binding to peptide, which value is less than 2)","- (specific OD450 or cpm of sera sample binding to peptide divided by the specific OD450 or cpm of NHS sample binding to peptide, which value is less than 2)","- (specific OD450 or cpm of sera sample binding to peptide divided by the specific OD450 or cpm of NHS sample binding to peptide, which value is less than 2)",++ (which value is greater than 3),++ (which value is greater than 3),++ (which value is greater than 3),+ (which value is between 2 to 3),++ (which value is greater than 3),"- (specific OD450 or cpm of sera sample binding to peptide divided by the specific OD450 or cpm of NHS sample binding to peptide, which value is less than 2)","- (specific OD450 or cpm of sera sample binding to peptide divided by the specific OD450 or cpm of NHS sample binding to peptide, which value is less than 2)",+ (which value is between 2 to 3),"Percentage of sera samples demonstrating binding to peptide, non-transmitter (Non-transmitter group, n = 13): 23.0%; Percentage of sera samples demonstrating binding to peptide, transmitter (Transmitter / transmission group, n = 7): 42.9%; Percent of the maternal serum samples that bound to the peptide (all 20 samples): 30%"

# Source: patent US5556744A, “Methods and compositions for diagnosing and treating certain HIV infected patients” (The Trustees of the University of Pennsylvania, priority 1994, dated 1996)
